# Measurements published in paper PMC7881127, “Cholesterol as a modulator of cannabinoid receptor CB2 signaling” (Scientific Reports, 2021).
# Target: T1, hCB2 (Homo sapiens, UniProt P34972)
# T1 construct: purchased PerkinElmer ES111-M400UA; host or cells: CHO-K1 cells stably transfected
# Test: [35S]GTPγS binding assay in hCB2-CHO-K1 cell membranes
# Type: biochemical
# Description: Figure 2 Affinity and functional effects of novel MRI ligands on CB2 receptor in CHO cell membranes. (a) binding affinities (nM) and Emax (% and nM) of [^35S]-GTPγS binding to CHO membranes (PerkinElmer, Cat. No ES111-M400UA) expressing hCB2. (b) [^35S]-GTPγS binding to membranes as a factor of ligand concentration. Binding of [^35S]-GTPγS was determined as described in “Methods”. Non-specific binding was defined as 0% activity. The assay of GTPγS non-specific binding contains non-radioactive GTPγS.
# [^35S] GTPγS binding was assayed as described earlier[65] with slight modifications. Briefly, hCB2-CHO-K1 cell membranes (4 µg) were incubated with 0.05 nM [^35S] GTPγS, and the indicated concentrations of ligands in TEM buffer (50 mM Tris–HCl, 0.2 mM EGTA, and 9 mM MgCl2, pH 7.4) containing 100 µM GDP, 150 mM NaCl, and 0.1% (w/v) bovine serum albumin in a total volume of 1 ml for 60 min at 30 °C.
# T1 sequence (P34972 whole entry): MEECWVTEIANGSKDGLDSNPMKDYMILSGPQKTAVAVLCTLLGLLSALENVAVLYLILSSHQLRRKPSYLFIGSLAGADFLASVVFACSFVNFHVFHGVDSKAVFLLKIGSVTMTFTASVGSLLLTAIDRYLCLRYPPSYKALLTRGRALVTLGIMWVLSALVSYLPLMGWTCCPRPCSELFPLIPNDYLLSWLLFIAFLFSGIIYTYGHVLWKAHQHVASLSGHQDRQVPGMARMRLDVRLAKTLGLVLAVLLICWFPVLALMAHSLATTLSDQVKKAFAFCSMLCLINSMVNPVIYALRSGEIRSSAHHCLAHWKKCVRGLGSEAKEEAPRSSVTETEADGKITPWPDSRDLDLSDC
compound,measurement,setting,value
"CC(=O)OCCn1c(=NC(=O)C2C(C)(C)C2(C)C)sc2cc(Cl)ccc21 [MRI-2646, 2-(6-Chloro-2-((2,2,3,3-tetramethylcyclopropane-1-carbonyl)imino)benzo[d]thiazol-3(2H)-yl)ethyl acetate]",Emax,"CHO membranes expressing hCB2 (PerkinElmer ES111-M400UA), read-out: GTPγS binding Emax",-2 ± 4%
same,Functional effect on G-protein signaling (pharmacological category),hCB2-expressing CHO cell membranes (PerkinElmer),no effect on basal signaling
